PubChem BioAssay (NCI)
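Assay format: 96-well plates, 48-hour exposure. GI50 marks 50% less growth. At the TGI there is no net growth.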

Tests used:
Assay in all cases: growth of human tumour cells (NCI), 48 h
[1] = system: SN12C renal
[2] = system: SK-MEL-2 melanoma
[3] = system: UACC-257 melanoma
[4] = system: LOX IMVI melanoma
[5] = system: COLO 205 colon
[6] = system: SK-MEL-5 melanoma
[7] = system: M14 melanoma
[8] = system: SF-295 CNS
[9] = system: SR leukemia
[10] = system: EKVX NSCLC
[11] = system: DU-145 prostate
[12] = system: CCRF-CEM leukemia
[13] = system: IGROV1 ovarian
[14] = system: SF-539 CNS
[15] = system: NCI-H522 lung
[16] = system: BT-549 breast
[17] = system: U251 CNS
[18] = system: UO-31 renal
[19] = system: 786-0 renal
[20] = system: RPMI-8226 leukemia
[21] = system: SK-MEL-28 melanoma
[22] = system: UACC-62 melanoma
[23] = system: HCC-2998 colon
[24] = system: SK-OV-3 ovarian
[25] = system: SF-268 CNS
[26] = system: TK-10 renal
[27] = system: PC-3 prostate
[28] = system: NCI-H460 lung
[29] = system: OVCAR-3 ovarian
[30] = system: SNB-19 CNS
[31] = system: HOP-92 NSCLC
[32] = system: HT29 colon
[33] = system: MCF7 breast
[34] = system: OVCAR-5 ovarian
[35] = system: A498 renal
[36] = system: OVCAR-4 ovarian
[37] = system: NCI-H226 lung
[38] = system: RXF 393 renal
[39] = system: T-47D breast
[40] = system: HCT-15 colon
[41] = system: NCI-H23 lung
[42] = system: K-562 leukemia
[43] = system: MALME-3M melanoma
[44] = system: MOLT-4 leukemia
[45] = system: HCT-116 colon
[46] = system: MDA-MB-231 breast
[47] = system: A549 NSCLC
[48] = system: NCI/ADR-RES ovarian
[49] = system: HOP-62 NSCLC
[50] = system: MDA-MB-435
[51] = system: HS 578T breast
[52] = system: CAKI-1 renal
[53] = system: SW-620 colon
[54] = system: OVCAR-8 ovarian
[55] = system: SNB-75 CNS
[56] = system: HL-60(TB) leukemia
[57] = system: ACHN renal
[58] = system: KM12 colon

Compound: Cc1ncc(C(=O)Nc2ccc(CN3CCN(C)CC3)c(C(F)(F)F)c2)cc1C#Cc1c(N)ncc2ccccc12
- GI50 [1]: 319 nM
- TGI [1]: 783 nM
- GI50 [2]: 545 nM
- TGI [2]: 1250 nM
- GI50 [3]: 477 nM
- TGI [3]: 1060 nM
- GI50 [4]: 173 nM
- TGI [4]: 605 nM
- GI50 [5]: 131 nM
- TGI [5]: 619 nM
- GI50 [6]: 446 nM
- TGI [6]: 878 nM
- GI50 [7]: 92.3 nM
- TGI [7]: 476 nM
- GI50 [8]: 568 nM
- TGI [8]: 1140 nM
- GI50 [9]: 260 nM
- TGI [9]: 1040 nM
- GI50 [10]: 458 nM
- TGI [10]: 906 nM
- GI50 [11]: 502 nM
- TGI [11]: 997 nM
- GI50 [12]: 494 nM
- TGI [12]: 1350 nM
- GI50 [13]: 208 nM
- TGI [13]: 823 nM
- GI50 [14]: 470 nM
- TGI [14]: 914 nM
- GI50 [15]: 460 nM
- TGI [15]: 992 nM
- GI50 [16]: 894 nM
- TGI [16]: 1960 nM
- GI50 [17]: 539 nM
- TGI [17]: 1070 nM
- GI50 [18]: 460 nM
- TGI [18]: 1270 nM
- GI50 [19]: 568 nM
- TGI [19]: 1050 nM
- GI50 [20]: 396 nM
- TGI [20]: 1260 nM
- GI50 [21]: 411 nM
- TGI [21]: 889 nM
- GI50 [22]: 246 nM
- TGI [22]: 781 nM
- GI50 [23]: 446 nM
- TGI [23]: 899 nM
- GI50 [24]: 1610 nM
- TGI [24]: 5.06 µM
- GI50 [25]: 448 nM
- TGI [25]: 1090 nM
- GI50 [26]: 623 nM
- TGI [26]: 1120 nM
- GI50 [27]: 461 nM
- TGI [27]: 996 nM
- GI50 [28]: 447 nM
- TGI [28]: 952 nM
- GI50 [29]: 484 nM
- TGI [29]: 1040 nM
- GI50 [30]: 591 nM
- TGI [30]: 1060 nM
- GI50 [31]: 53.5 nM
- TGI [31]: 505 nM
- GI50 [32]: 97.8 nM
- TGI [32]: 585 nM
- GI50 [33]: 378 nM
- TGI [33]: 913 nM
- GI50 [34]: 415 nM
- TGI [34]: 985 nM
- GI50 [35]: 485 nM
- TGI [35]: 939 nM
- GI50 [36]: 515 nM
- TGI [36]: 2080 nM
- GI50 [37]: 393 nM
- TGI [37]: 1040 nM
- GI50 [38]: 465 nM
- TGI [38]: 915 nM
- GI50 [39]: 1960 nM
- TGI [39]: 7.7 µM
- GI50 [40]: 382 nM
- TGI [40]: 873 nM
- GI50 [41]: 439 nM
- TGI [41]: 1020 nM
- GI50 [42]: 3.32 nM
- TGI [42]: 453 nM
- GI50 [43]: 102 nM
- TGI [43]: 475 nM
- GI50 [44]: 228 nM
- TGI [44]: 836 nM
- GI50 [45]: 159 nM
- TGI [45]: 620 nM
- GI50 [46]: 163 nM
- TGI [46]: 650 nM
- GI50 [47]: 488 nM
- TGI [47]: 1030 nM
- GI50 [48]: 670 nM
- TGI [48]: 1540 nM
- GI50 [49]: 524 nM
- TGI [49]: 1400 nM
- GI50 [50]: 163 nM
- TGI [50]: 624 nM
- GI50 [51]: 356 nM
- TGI [51]: 1260 nM
- GI50 [52]: 648 nM
- TGI [52]: 2350 nM
- GI50 [53]: 227 nM
- TGI [53]: 754 nM
- GI50 [54]: 566 nM
- TGI [54]: 1280 nM
- GI50 [55]: 458 nM
- TGI [55]: 975 nM
- GI50 [56]: 247 nM
- TGI [56]: 817 nM
- GI50 [57]: 336 nM
- TGI [57]: 732 nM
- GI50 [58]: 4.44 nM
- TGI [58]: 479 nM
